Starred links: 1 amine or outer side, 2 acyl side, 3 side chain; linkers in the order of their positions; H or OH if unused. Residues, ends and D or L forms follow the SMILES beside them. *: point of attachment. AMC = Cc1cc(=O)oc2cc(N*)ccc12; Suc = O=C(CCC(=O)[*:2])[*:1]; Cbz = O=C(OCc1ccccc1)*; Boc = CC(C)(C)OC(=O)*
Target: T1, proteasome (Rattus norvegicus, UniProt P28073+P28075+Q9JHW0)
T1 construct: gene Psmb5; native, not purified; soluble fraction (100,000 g supernatant) of liver, brain or lens homogenate; 20S/26S and immunoproteasome content not resolved; with Proteasome subunit beta type-1; Proteasome subunit beta type-2; Proteasome subunit beta type-3; Proteasome subunit beta type-4; Proteasome subunit alpha type-1; Proteasome subunit alpha type-2; Proteasome subunit alpha type-3; Proteasome subunit alpha type-4; Proteasome subunit alpha type-5; Proteasome subunit alpha type-6; Proteasome subunit alpha type-7
Experiment: fluorogenic AMC release, Lineweaver-Burk plot
Assay type: biochemical
Settings: liver soluble fraction, Tris pH 7.5, EDTA, 2 mM DTT, 37°C, per-animal values versus age, brain and lens in Figures 2 and 3

## Cc1cc(=O)oc2cc(NC(=O)[C@H](CCC(=O)O)NC(=O)[C@H](CC(C)C)NC(=O)[C@H](CC(C)C)NC(=O)OCc3ccccc3)ccc12 [LLE, Z-Leu-Leu-Glu-AMC] (Cbz-Leu-Leu-Glu-{AMC})
Peptidylglutamyl peptidase site (beta1)
  K m: Michaelis-Menten constants (K m) of the proteasome in rat liver versus age

## Cc1cc(=O)oc2cc(NC(=O)[C@H](Cc3ccc(O)cc3)NC(=O)[C@@H](NC(=O)[C@H](CC(C)C)NC(=O)[C@H](CC(C)C)NC(=O)CCC(=O)O)C(C)C)ccc12 [LLVY, Suc-Leu-Leu-Val-Tyr-AMC] (Suc-LLVY-{AMC})
chymotrypsin-like site (beta5)
  K m: Michaelis-Menten constants (K m) of the proteasome in rat liver versus age

## Cc1cc(=O)oc2cc(NC(=O)[C@H](CCCNC(=N)N)NC(=O)CNC(=O)[C@@H](NC(=O)OC(C)(C)C)C(C)C)ccc12 [VGR, Boc-Val-Gly-Arg-AMC] (Boc-Val-Gly-Arg-{AMC})
trypsin-like site (beta2)
  K m: Michaelis-Menten constants (K m) of the proteasome in rat liver versus age

— publication PMC2850129, “Changes in Activity and Kinetic Properties of the Proteasome in Different Rat Organs during Development and Maturation” (Current Gerontology and Geriatrics Research, 2010)
